Measurements from US20150159115A1, “PURIFICATION OF DPA ENRICHED OIL” (Omega Protein Corporation, priority 2013, published 2015).
Entries after “also recorded” stand apart in the source; their conditions may differ. Like-named read-outs stand apart in the source and are kept apart here.

Key:
THP-1 cells [1] = assay: Cytokine (TNF-α, MCP-1, IL-6) release by LPS-stimulated THP-1 macrophages after fatty acid incubation; format: cell-based; details: for Release of cytokines (TNF-α, MCP-1, IL-6) by THP-1 macrophages compared to control macrophages: fatty acid 50 and 100 μM 24 h, then LPS 24 h; for Release of cytokines by THP-1 macrophages at increasing fatty acid concentration: highest 100 μM
Protocol: (§1) THP-1 cells were maintained in RPMI 1640+2 mM L-Glutamine, 10 mM HEPES, 1 mM sodium pyruvate, 4500 mg/L glucose, and 1500 mg/L sodium bicarbonate; supplemented with 3.5 μL/L of 2-mercaptoethanol and 10% fetal bovine serum (FBS). Cell line was maintained in 75 cm^2 filtered cap flasks in a 37° C. incubator with 5% CO2. THP-1 cells were seeded in 24 well plates at 5×10^5 cells/mL using 600 μL/well and allowed to differentiate into macrophages (MΦ) for 72 h with phorbol 12-myristate 13-acetate (PMA) at a final concentration of 50 ng/mL.
Experiment 1: Prior to incubation with individual fatty acids, the cells were starved for 8 h in a 2% lipo-free FBS RPMI medium. Individual fatty acids were added in duplicate into the 24 well plate at two concentrations, 50 μM and 100 μM. Every assay was cultured in three runs with duplicates in each run pooled. After incubation for 24 h with fatty acids the MΦ were scraped off the plates and fatty acids were isolated as described in the ‘Animal Tests’ portion of this Example. The fatty acid profiles of the MΦ were determined as previously described (Wang, et al., 2010, Clin. Nutr., DOI: 10.1016/j.clnu.2013.04.009).
(§2) Experiment 2: Previously differentiated MΦ were incubated with fatty acids as described in ‘Experiment 1’ for 24 hours. At the 24 h time point the cells were then stimulated with lipopolysaccharide from E. coli 0111:B4 for another 24 hours. The plates were centrifuged at 1200×g for 5 minutes and supernatant was then collected and analyzed for cytokines. The MΦ were scraped off the plates and fatty acids were isolated as described in the ‘Animal Portion’. The fatty acid profiles of the MΦ were determined as previously described (Wang, et al., 2010, Clin. Nutr., DOI: 10.1016/j.clnu.2013.04.009).
A linear mixed effects model was used in R, lme in the nlme package, for estimating treatment effects on cytokine production in LPS stimulated THP-1 cells. The fixed effects fit were treatment, FA concentration, and when significant LPS concentration was fit as a covariate, the plate cells were cultured on nested within run was fit as a random effect. Least squares means were analyzed as outlined above and pairwise comparisons were made between treatments for FA concentration, or where significant LPS concentration.
The objective of this study was to determine if docosapentaenoic acid n-3 (DPAn3) enrichment of macrophages (MΦ) changed their inflammatory response relative to saturated (S), mono-unsaturated (MU), and other poly-unsaturated (PU) fatty acids (FA). Differentiated THP-1 cells were incubated with one of 11 FA (50 and 100 μM) of varying degrees of unsaturation or no FA for 24 h prior to 24 h of stimulation with lipopolysaccharide from E. coli. Fatty acids were collected from MΦ without stimulation to determine the fatty acid profiles. Media was collected from MΦ post-stimulation and probed for prostaglandin E2, and cytokines, including tumor necrosis factor-α, monocyte chemoattractant protein-1, and interleukin-6. Prostaglandin E2 production was greater (P<0.05) for AA than all other FA, and omega-3 PUFA decreased (P<0.01) PGE2 compared to n6 PUFA and all other FA.

LDLr−/− mice [2] = assay: Fluorescence intensity of inflammatory markers in brain microvessel (cerebrovasculature) of mice; format: in vivo, mouse; details: relative to control = 1.00
Text: (§3) 48 male LDLr−/− mice (8-10 weeks of age, ˜20 g) were obtained from Jackson Laboratories (stock #2207) and allowed to acclimate to the cages, room, and feeding design for 12 days. After the acclimation period mice were weighed and randomly assigned to one of six treatments. Mice were fed an isolipid (20% total fatty acids w/w), isonitrogenous, and 0.2% cholesterol (w/w) diet, which is considered atherogenic (Ain76, 58TQ TestDiet®) as a base diet. This base diet was formulated to meet or exceed all nutrient and energy requirements for a growing mouse. The treatments were added to the base diet (0.76% w/w of the total diet) and was made once at the beginning of the study, separated into weekly aliquots, stored at −80° C., allowed to thaw at 4° C. for 2 days prior to feeding, and stored at 4° C. until fed. A sample from each weekly aliquot was collected, composited, and archived for fatty acid analysis at a later date. The treatments were as follows: (1) Negative control diet, 3.5% of the total fatty acids were replaced with milk fat (the only source of fat in the base diet), (2) 3.5% of the total fatty acids were replaced with purified ethyl esters of DHA, (3) 3.5% of the total fatty acids were replaced with purified ethyl esters of DPAn3, (4) 3.5% of the total fatty acids were replaced with purified ethyl esters of EPA, (5) 3.5% of the total fatty acids were replaced with omega-3 fatty acids from Lovaza® (GlaxoSmithKline), and (6) 3.5% of the total fatty acids were replaced with omega-3 fatty acids from ΩmegaActiv® DPA 5000 (Omega Protein Inc., Houston, Tex.; Table 1).
(§4) The objectives of these studies were to compare the effects of replacing 3.5% of the total fatty acids with DPAn3, EPA, DHA, and commercial combinations of EPA, DPAn3, and DHA on serum lipid profiles, brain inflammation, and the development of atherosclerosis in LDLr−/− mice fed an atherogenic diet for 20 weeks and [2] to determine if DPAn3 enrichment of macrophages (50 and 100 μM) changed their lipopolysaccharide stimulated inflammatory profile relative to saturated (S), mono-unsaturated (MU), and other omega-6 and omega-3 poly-unsaturated (PU) fatty acids (FA).
Flourescence intensity (relative) of brain microvessel

LDLr−/− mice [3] = assay: TNF-α concentration in adipose tissue of mice fed different omega-3 products; details: mouse, in vivo
Text: as §3
TNF-α concentration in adipose tissue of mice fed with different omega-3 products

LDLr−/− mice [4] = assay: Fluorescence intensity of inflammatory markers in brain hippocampus of mice; format: in vivo, mouse; details: relative to control = 1
Text: as §3, §4

THP-1 cells [5] = assay: Prostaglandin E2 production by LPS-stimulated THP-1 macrophages after fatty acid incubation; format: cell-based; details: fatty acid 50 and 100 μM 24 h, then LPS 24 h
Protocol: as §1, §2
The objective of this study was to determine if docosapentaenoic acid n-3 (DPAn3) enrichment of macrophages (MΦ) changed their inflammatory response relative to saturated (S), mono-unsaturated (MU), and other poly-unsaturated (PU) fatty acids (FA). […]

[6] = test system: murine peritoneal macrophages; details: cited from earlier work

## CCCCCCCC/C=C\CCCCCCCC(=O)O [oleic acid]
THP-1 cells [1]
  Release of cytokines (TNF-α, MCP-1, IL-6) by THP-1 macrophages compared to control macrophages: did not change the amount of cytokines released; also recorded: did not change inflammatory cytokine release
  Release of cytokines by THP-1 macrophages at increasing fatty acid concentration: did not change, or increased the amount of cytokines released

## CC/C=C\C/C=C\C/C=C\C/C=C\C/C=C\CCCCCC(=O)O [DPA, docosapentaenoic acid]
LDLr−/− mice [2]
  IL-8 fluorescence intensity (relative) of brain microvessel: 0.96
  MCP-1 fluorescence intensity (relative) of brain microvessel: 0.92
LDLr−/− mice [3]
  TNF-α Concentration in adipose tissue: 0.41 pg/μg protein
LDLr−/− mice [4]
  IL-8 fluorescence intensity (relative) of brain hippocampus: 0.70
  TIMP2 fluorescence intensity (relative) of brain hippocampus: 0.17
  TNF-α fluorescence intensity (relative) of brain hippocampus: 0.28

## CCCCC/C=C\C/C=C\C/C=C\C/C=C\CCCC(=O)O [AA, Arachidonic acid]
THP-1 cells [5]
  Prostaglandin E2 production by THP-1 macrophages: greater; also recorded: increased greatly
THP-1 cells [1]
  Release of cytokines (TNF-α, MCP-1, IL-6) by THP-1 macrophages compared to control macrophages: most potent inhibitor of cytokine release followed by AA
THP-1 cells [1]; listed as Arachidonic acid
  Release of cytokines (TNF-α, MCP-1, IL-6) by THP-1 macrophages compared to control macrophages: decreased cytokine expression, but not to the extent of EPA supplementation
[6]; AA at 2-5 μM, increasing LPS concentrations
  TNF-α production: completely inhibited
[6]; AA at concentrations as low as 1 μM
  TNF-α production: decreased TNF-α production

## CC/C=C\C/C=C\C/C=C\C/C=C\C/C=C\CCCC(=O)O [EPA, eicosapentaenoic acid]
LDLr−/− mice [2]
  IL-8 fluorescence intensity (relative) of brain microvessel: 0.93
  MCP-1 fluorescence intensity (relative) of brain microvessel: 0.96
LDLr−/− mice [3]
  TNF-α Concentration in adipose tissue: 0.58 pg/μg protein
LDLr−/− mice [4]
  IL-8 fluorescence intensity (relative) of brain hippocampus: 0.72
  TIMP2 fluorescence intensity (relative) of brain hippocampus: 0.63
  TNF-α fluorescence intensity (relative) of brain hippocampus: 0.31

## CCCCCCCCCCCCCCCC(=O)O [C16:0]
THP-1 cells [1]
  Release of cytokines (TNF-α, MCP-1, IL-6) by THP-1 macrophages compared to control macrophages: did not change the amount of cytokines released
  Release of cytokines by THP-1 macrophages at increasing fatty acid concentration: did not change, or increased the amount of cytokines released

## CC/C=C\C/C=C\C/C=C\C/C=C\C/C=C\C/C=C\CCC(=O)O [DHA, docosahexaenoic acid]
LDLr−/− mice [2]
  IL-8 fluorescence intensity (relative) of brain microvessel: 0.86
  MCP-1 fluorescence intensity (relative) of brain microvessel: 0.93
LDLr−/− mice [3]
  TNF-α Concentration in adipose tissue: 0.82 pg/μg protein
LDLr−/− mice [4]
  IL-8 fluorescence intensity (relative) of brain hippocampus: 0.46
  TIMP2 fluorescence intensity (relative) of brain hippocampus: 0.23
  TNF-α fluorescence intensity (relative) of brain hippocampus: 0.29

## CCCCCCCCCCCCCCCCCC(=O)O [C18:0]
THP-1 cells [1]
  Release of cytokines (TNF-α, MCP-1, IL-6) by THP-1 macrophages compared to control macrophages: did not change the amount of cytokines released
  Release of cytokines by THP-1 macrophages at increasing fatty acid concentration: did not change, or increased the amount of cytokines released
